The structures appear in SMILES notation.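 All cell lines were grown in 96-well plates and treated with compound for 48 hours. The concentration for 50% growth inhibition is given as GI50. TGI: total growth inhibition.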

The text below walks through data of PubChem BioAssay (NCI).

The test system of one assay is DU-145 prostate. As to the kind of experiment: NCI-60 cell line screen, 48 h.
Regarding `c1ccc2c(c1)NC(C1OC3CCCN3C1C1Nc3ccccc3S1)S2` (stereo unspecified), the TGI is more than 100 µM.

As for `O=C1C[C@H](Sc2ccccc2)C2(OCCO2)[C@@H](Sc2ccccc2)C1`, the TGI is 14.1 µM.

In turn, `CCCNC(=O)CCC(C)[C@H]1CCC2C3C(C[C@H](OC(C)=O)[C@@]21C)[C@@]1(C)CCC2(C[C@H]1C[C@H]3OC(C)=O)OOC1(CCC(C)CC1)OO2` (stereo partly specified) registered a TGI of 21.2 µM.

`COc1cc(NS(C)(=O)=O)ccc1N1Cc2cnc3ccc4[nH]c(C)cc1c4c23` yielded a TGI of more than 100 µM.

Turning to `CC12CC(=O)C3C(C(=O)C1)C32C` (stereo unspecified), the TGI is more than 100 µM.

Compound `O=C1CN2C(c3ccccc3)=NN(c3ccc([N+](=O)[O-])cc3)C2(c2ccccc2)c2cc(Cl)ccc2N1CC1CC1` (stereo unspecified) displayed a TGI of more than 100 µM.

Compound `COc1ccc(C2(CC(C)O)SCCCS2)cc1` (stereo unspecified) yielded a TGI of more than 100 µM.

Compound `Cc1ccccc1C(O)(c1nccn1C)c1nccn1C` showed a TGI of more than 100 µM.

`O=[N+]([O-])/C(C(Cl)=C(Cl)Cl)=C(\Nc1cccc2cccnc12)SCc1ccccc1` yielded a TGI of 39.6 µM.

Turning to `O=C(N=Nc1cc(Cl)ccc1Cl)NNc1cc(Cl)ccc1Cl`, the TGI was more than 100 µM.

In turn, `O=C(CNc1ccccc1Cl)Nn1c(-c2ccccc2)nc2ccccc2c1=O` came in with a TGI of more than 100 µM.

Turning to `Cc1cc2[nH]c3[nH]c(=O)[nH]c(=O)c3c2cc1C`, the TGI was more than 100 µM.

In turn, `CC1(C)N=C(C(N)=O)c2ncn(CCCO)c2N1` returned a TGI of more than 100 µM.

The compound `N#C/C(=C\c1cc(Br)c(O)c(Br)c1)c1cccnc1` registered a TGI of more than 100 µM.

The next assay concerns LOX IMVI melanoma. As to the kind of experiment: NCI-60 cell line screen, 48 h.
With `CC(=O)O[C@]12CCCCCC1C1(O)C(O)CCC[C@H]12` (stereo partly specified), the TGI was more than 100 µM.

For `COCOc1ccc(Cn2c(=O)n(C)c(=O)c3c2ncn3C)cc1[N+](=O)[O-]`, the TGI was more than 100 µM.

`O=C1C[C@H](Sc2ccccc2)C2(OCCO2)[C@@H](Sc2ccccc2)C1` displayed a TGI of 2.17 µM.

`BrC/C=C/C[P+](c1ccccc1)(c1ccccc1)c1ccccc1` gave a TGI of 33.5 µM.

The compound `COc1cc(NS(C)(=O)=O)ccc1N1Cc2cnc3ccc4[nH]c(C)cc1c4c23` had a TGI of more than 100 µM.

The compound `CC12CC(=O)C3C(C(=O)C1)C32C` (stereo unspecified) yielded a TGI of more than 100 µM.

`COc1cc([N+](=O)[O-])c(OC)cc1-c1nc2sc(Cl)cn2c1/C=N/Nc1ccccn1`: the GI50 is more than 50 µM and the TGI is more than 50 µM.

`O=C1CN2C(c3ccccc3)=NN(c3ccc([N+](=O)[O-])cc3)C2(c2ccccc2)c2cc(Cl)ccc2N1CC1CC1` (stereo unspecified) gave a TGI of more than 100 µM.

Compound `C=CCNC(=S)/N=C/c1c(O)c2ccccc2oc1=O` showed a TGI of more than 100 µM.

In turn, `CC(=O)N(C(C)=O)C1=C2c3ccccc3N(S(=O)(=O)c3ccccc3)C2n2c(=O)n(-c3ccccc3)c(=O)n2C1` (stereo unspecified) displayed a TGI of 81.3 µM.

Regarding `O=C(NC(Cc1ccc(I)cc1)C(=O)O)c1ccc(I)cc1` (stereo unspecified), the TGI is more than 100 µM.

`O=C(CNc1ccccc1Cl)Nn1c(-c2ccccc2)nc2ccccc2c1=O` registered a TGI of 29.5 µM.

For `Cc1cc2[nH]c3[nH]c(=O)[nH]c(=O)c3c2cc1C`, the TGI is more than 100 µM.

`O=c1ccc2cc3ccc4cccc5ccc(c2o1)c3c45`: the TGI was 55.6 µM.

`CC1(C)N=C(C(N)=O)c2ncn(CCCO)c2N1` showed a TGI of more than 100 µM.

In turn, `O=S(=O)(O)c1cc2ccc1/C=C\c1ccc(cc1S(=O)(=O)O)N=Nc1ccc(c(S(=O)(=O)O)c1)/C=C\c1ccc(cc1S(=O)(=O)O)N=N2` returned a TGI of more than 100 µM.

A further assay concerns MOLT-4 leukemia. The experiment in a line: NCI-60 cell line screen, 48 h.
`c1ccc2c(c1)NC(C1OC3CCCN3C1C1Nc3ccccc3S1)S2` (stereo unspecified) showed a TGI of more than 100 µM.

On to `CC(=O)O[C@]12CCCCCC1C1(O)C(O)CCC[C@H]12` (stereo partly specified), for which the TGI was more than 100 µM.

Regarding `COCOc1ccc(Cn2c(=O)n(C)c(=O)c3c2ncn3C)cc1[N+](=O)[O-]`, the TGI is more than 100 µM.

In the case of `CCCNC(=O)CCC(C)[C@H]1CCC2C3C(C[C@H](OC(C)=O)[C@@]21C)[C@@]1(C)CCC2(C[C@H]1C[C@H]3OC(C)=O)OOC1(CCC(C)CC1)OO2` (stereo partly specified), the TGI is more than 100 µM.

`BrC/C=C/C[P+](c1ccccc1)(c1ccccc1)c1ccccc1` gave a TGI of more than 100 µM.

`COc1cc(NS(C)(=O)=O)ccc1N1Cc2cnc3ccc4[nH]c(C)cc1c4c23` registered a TGI of more than 100 µM.

Turning to `Cc1cc(=O)c2c([nH]1)NS(=O)(=O)NC2=O`, the TGI is more than 100 µM.

Turning to `CC12CC(=O)C3C(C(=O)C1)C32C` (stereo unspecified), the TGI is more than 100 µM.

Regarding `O=C1CN2C(c3ccccc3)=NN(c3ccc([N+](=O)[O-])cc3)C2(c2ccccc2)c2cc(Cl)ccc2N1CC1CC1` (stereo unspecified), the TGI is more than 100 µM.

Consider `C=CCNC(=S)/N=C/c1c(O)c2ccccc2oc1=O`, for which the TGI is more than 100 µM.

`COc1ccc(C2(CC(C)O)SCCCS2)cc1` (stereo unspecified) yielded a TGI of more than 100 µM.

`Cc1ccccc1C(O)(c1nccn1C)c1nccn1C` registered a TGI of more than 100 µM.

Take `O=C(NC(Cc1ccc(I)cc1)C(=O)O)c1ccc(I)cc1` (stereo unspecified): the TGI was more than 100 µM.

`O=[N+]([O-])/C(C(Cl)=C(Cl)Cl)=C(\Nc1cccc2cccnc12)SCc1ccccc1` had a TGI of 14.4 µM.

As for `O=C(CNc1ccccc1Cl)Nn1c(-c2ccccc2)nc2ccccc2c1=O`, the TGI stood at 57.7 µM.

For `O=c1ccc2cc3ccc4cccc5ccc(c2o1)c3c45`, the TGI was more than 100 µM.

`O=S(=O)(O)c1cc2ccc1/C=C\c1ccc(cc1S(=O)(=O)O)N=Nc1ccc(c(S(=O)(=O)O)c1)/C=C\c1ccc(cc1S(=O)(=O)O)N=N2` gave a TGI of more than 100 µM.

`N#C/C(=C\c1cc(Br)c(O)c(Br)c1)c1cccnc1`: the TGI is more than 100 µM.

Another assay relates to OVCAR-5 ovarian. As to the kind of experiment: NCI-60 cell line screen, 48 h.
Regarding `c1ccc2c(c1)NC(C1OC3CCCN3C1C1Nc3ccccc3S1)S2` (stereo unspecified), the TGI is more than 100 µM.

`O=C1C[C@H](Sc2ccccc2)C2(OCCO2)[C@@H](Sc2ccccc2)C1` displayed a TGI of 12.3 µM.

Turning to `CCCNC(=O)CCC(C)[C@H]1CCC2C3C(C[C@H](OC(C)=O)[C@@]21C)[C@@]1(C)CCC2(C[C@H]1C[C@H]3OC(C)=O)OOC1(CCC(C)CC1)OO2` (stereo partly specified), the TGI was 87.4 µM.

Take `BrC/C=C/C[P+](c1ccccc1)(c1ccccc1)c1ccccc1`: the TGI was more than 100 µM.

`COc1cc(NS(C)(=O)=O)ccc1N1Cc2cnc3ccc4[nH]c(C)cc1c4c23` gave a TGI of more than 100 µM.

`CC12CC(=O)C3C(C(=O)C1)C32C` (stereo unspecified) came in with a TGI of more than 100 µM.

Regarding `O=C1CN2C(c3ccccc3)=NN(c3ccc([N+](=O)[O-])cc3)C2(c2ccccc2)c2cc(Cl)ccc2N1CC1CC1` (stereo unspecified), the TGI is more than 100 µM.

The compound `C=CCNC(=S)/N=C/c1c(O)c2ccccc2oc1=O` gave a TGI of more than 100 µM.

`COc1ccc(C2(CC(C)O)SCCCS2)cc1` (stereo unspecified): the TGI is more than 100 µM.

Compound `CC(=O)N(C(C)=O)C1=C2c3ccccc3N(S(=O)(=O)c3ccccc3)C2n2c(=O)n(-c3ccccc3)c(=O)n2C1` (stereo unspecified) returned a TGI of more than 100 µM.

In the case of `Cc1ccccc1C(O)(c1nccn1C)c1nccn1C`, the TGI is more than 100 µM.

As for `O=C(NC(Cc1ccc(I)cc1)C(=O)O)c1ccc(I)cc1` (stereo unspecified), the TGI is more than 100 µM.

Regarding `O=[N+]([O-])/C(C(Cl)=C(Cl)Cl)=C(\Nc1cccc2cccnc12)SCc1ccccc1`, the TGI was 78.9 µM.

On to `O=C(N=Nc1cc(Cl)ccc1Cl)NNc1cc(Cl)ccc1Cl`, for which the TGI worked out at 39.8 µM.

`O=C(CNc1ccccc1Cl)Nn1c(-c2ccccc2)nc2ccccc2c1=O` had a TGI of more than 10 µM.

Compound `Cc1cc2[nH]c3[nH]c(=O)[nH]c(=O)c3c2cc1C` showed a TGI of more than 100 µM.

For the compound `CC1(C)N=C(C(N)=O)c2ncn(CCCO)c2N1`, the TGI was more than 100 µM.

`O=S(=O)(O)c1cc2ccc1/C=C\c1ccc(cc1S(=O)(=O)O)N=Nc1ccc(c(S(=O)(=O)O)c1)/C=C\c1ccc(cc1S(=O)(=O)O)N=N2` yielded a TGI of more than 100 µM.

Turning to `N#C/C(=C\c1cc(Br)c(O)c(Br)c1)c1cccnc1`, the TGI is more than 100 µM.

A further assay has as its system SF-268 CNS. The experiment in a line: NCI-60 cell line screen, 48 h.
The compound `c1ccc2c(c1)NC(C1OC3CCCN3C1C1Nc3ccccc3S1)S2` (stereo unspecified) gave a TGI of more than 100 µM.

In turn, `CC(=O)O[C@]12CCCCCC1C1(O)C(O)CCC[C@H]12` (stereo partly specified) yielded a TGI of more than 100 µM.

`COCOc1ccc(Cn2c(=O)n(C)c(=O)c3c2ncn3C)cc1[N+](=O)[O-]` showed a TGI of more than 100 µM.

In turn, `O=C1C[C@H](Sc2ccccc2)C2(OCCO2)[C@@H](Sc2ccccc2)C1` showed a TGI of 8.83 µM.

Regarding `CCCNC(=O)CCC(C)[C@H]1CCC2C3C(C[C@H](OC(C)=O)[C@@]21C)[C@@]1(C)CCC2(C[C@H]1C[C@H]3OC(C)=O)OOC1(CCC(C)CC1)OO2` (stereo partly specified), the TGI came to 50.8 µM.

In turn, `BrC/C=C/C[P+](c1ccccc1)(c1ccccc1)c1ccccc1` displayed a TGI of more than 100 µM.

Turning to `COc1cc(NS(C)(=O)=O)ccc1N1Cc2cnc3ccc4[nH]c(C)cc1c4c23`, the TGI is 63.4 µM.

The compound `Cc1cc(=O)c2c([nH]1)NS(=O)(=O)NC2=O` had a TGI of more than 100 µM.

The compound `CC12CC(=O)C3C(C(=O)C1)C32C` (stereo unspecified) came in with a TGI of more than 100 µM.

With `COc1cc([N+](=O)[O-])c(OC)cc1-c1nc2sc(Cl)cn2c1/C=N/Nc1ccccn1`, the GI50 was 19.2 µM and the TGI is more than 50 µM.

Compound `O=C1CN2C(c3ccccc3)=NN(c3ccc([N+](=O)[O-])cc3)C2(c2ccccc2)c2cc(Cl)ccc2N1CC1CC1` (stereo unspecified) showed a TGI of more than 100 µM.

As to `C=CCNC(=S)/N=C/c1c(O)c2ccccc2oc1=O`, the TGI is more than 100 µM.

Turning to `COc1ccc(C2(CC(C)O)SCCCS2)cc1` (stereo unspecified), the TGI is more than 100 µM.

As for `CC(=O)N(C(C)=O)C1=C2c3ccccc3N(S(=O)(=O)c3ccccc3)C2n2c(=O)n(-c3ccccc3)c(=O)n2C1` (stereo unspecified), the TGI is more than 100 µM.

Consider `Cc1ccccc1C(O)(c1nccn1C)c1nccn1C`, for which the TGI was more than 100 µM.

The compound `O=C(NC(Cc1ccc(I)cc1)C(=O)O)c1ccc(I)cc1` (stereo unspecified) had a TGI of more than 100 µM.

Turning to `O=[N+]([O-])/C(C(Cl)=C(Cl)Cl)=C(\Nc1cccc2cccnc12)SCc1ccccc1`, the TGI was 42.3 µM.

As for `O=C(CNc1ccccc1Cl)Nn1c(-c2ccccc2)nc2ccccc2c1=O`, the TGI is more than 100 µM.

As to `Cc1cc2[nH]c3[nH]c(=O)[nH]c(=O)c3c2cc1C`, the TGI is more than 100 µM.

Regarding `O=c1ccc2cc3ccc4cccc5ccc(c2o1)c3c45`, the TGI is more than 100 µM.

In turn, `CC1(C)N=C(C(N)=O)c2ncn(CCCO)c2N1` displayed a TGI of more than 100 µM.

For the compound `O=S(=O)(O)c1cc2ccc1/C=C\c1ccc(cc1S(=O)(=O)O)N=Nc1ccc(c(S(=O)(=O)O)c1)/C=C\c1ccc(cc1S(=O)(=O)O)N=N2`, the TGI is more than 100 µM.

In turn, `N#C/C(=C\c1cc(Br)c(O)c(Br)c1)c1cccnc1` returned a TGI of more than 100 µM.

In a further assay the test system is SK-MEL-28 melanoma. As to the kind of experiment: NCI-60 cell line screen, 48 h.
As to `c1ccc2c(c1)NC(C1OC3CCCN3C1C1Nc3ccccc3S1)S2` (stereo unspecified), the TGI was more than 100 µM.

`CC(=O)O[C@]12CCCCCC1C1(O)C(O)CCC[C@H]12` (stereo partly specified): the TGI is more than 100 µM.

For `COCOc1ccc(Cn2c(=O)n(C)c(=O)c3c2ncn3C)cc1[N+](=O)[O-]`, the TGI was more than 100 µM.

Take `O=C1C[C@H](Sc2ccccc2)C2(OCCO2)[C@@H](Sc2ccccc2)C1`: the TGI was 10.4 µM.
